According to patent US20260242829A1, “Use of Inhibitors to Increase Efficiency of CRISPR/Cas Insertions” (ASTRAZENECA AB, priority 2023, published 2026):

Tested on: HEK293T cells
Test: Effect of MMEJ and NHEJ inhibitors on CRISPR-Cas-induced double-strand break repair pathways and editing efficiency (amplicon sequencing, RIMA2)
Assay type: cell-based
Conditions: AZD7648 (1 µM) alone and in combination with Compound 1 at indicated concentrations, CRISPR/Cas9-mediated gene targeting, FIG. 4
Method: The effect of inhibitors of the MMEJ and NHEJ pathways on CRISPR-Cas-induced DNA double stranded break repair pathways was examined using the process shown schematically in FIG. 2A. Briefly, HEK293T cells were seeded into a 96-well plate 20 hours before transfection with plasmids encoding SpCas9 and a guide RNA (sgRNA) targeting CD34 in the presence and absence of single-stranded oligonucleotide donor (ssDNA). Two hours prior to transfection, the cells were submitted to inhibitor treatments, including the following conditions: a) 1 μM DNAPK inhibitor AZD7648 b) 1 μM DNAPK inhibitor AZD7648 in combination with compound 1, which was titrated in a 1:2 dilution series, ranging between 10 μM and 0.01 μM and corresponding DMSO control. Seventy hours post-transfection, cell confluence and eGFP-based transfection efficiencies were determined with the Incucyte SX5. Genomic DNA was extracted and editing outcome was analysed through deep-targeted amplicon sequencing and RIMA2 analysis (FIG. 2A) to determine knock-in frequencies as well as mutagenic DNA repair events, such as NHEJ and MMEJ outcomes (FIG. 2B).

| SMILES | DNA double strand break repair pathway used after CRISPR/Cas gene targeting |
| --- | --- |
| Cc1cc2ncnn2cc1Nc1ncc2c(n1)n(C1CCOCC1)c(=O)n2C [AZD7648] | results in DNA double strand break repair by the more precise HDR pathway, and minimizes the contribution from the more error-prone MMEJ and NHEJ pathways |
| CN1CCN(CCOc2ccc(-c3nc4c(OC5(C)CC5)ncnc4n3Cc3ccccc3)c(Cl)c2)CC1 [Compound 1, 9-Benzyl-8-(2-chloro-4-(2-(4-methylpiperazin-1-yl)ethoxy)phenyl)-6-(1-methylcyclopropoxy)-9H-purine] | results in DNA double strand break repair by the more precise HDR pathway, and minimizes the contribution from the more error-prone MMEJ and NHEJ pathways |
